Source: ChEMBL document CHEMBL4311997, “Discovery of a potent histone deacetylase (HDAC) 3/6 selective dual inhibitor” (Eur J Med Chem, 2019)
≈ marks a conversion by molar mass, not a printed value. Calls of active or inactive are those of the source. No cut-off for these calls is given here.

Tests used:
[1] = target: Histone-lysine N-methyltransferase SUV39H2 (Homo sapiens) (UniProt Q9H5I1); assay: Inhibition of human SUV39H2 at 100 uM using histone H3 as substrate incubated for 1 hr in presence of [3H]-SAM by filter binding method relative to control
[2] = target: Histone-lysine N-methyltransferase SUV39H1 (Homo sapiens) (UniProt O43463); assay: Inhibition of human SUV39H1 at 100 uM using histone H3 as substrate incubated for 1 hr in presence of [3H]-SAM by filter binding method relative to control
[3] = target: Protein arginine N-methyltransferase 1 (Homo sapiens) (UniProt Q99873); assay: Inhibition of human PRMT1 at 100 uM using histone H4 as substrate incubated for 1 hr in presence of [3H]-SAM by filter binding method relative to control
[4] = organism: Homo sapiens; assay: Inhibition of human MLL1 complex at 100 uM using core histone as substrate incubated for 1 hr in presence of [3H]-SAM by filter binding method relative to control
[5] = target: Histone-lysine N-methyltransferase EHMT2 (Homo sapiens) (UniProt Q96KQ7); assay: Inhibition of human G9a at 100 uM using core histone H3 (1 to 21 residues) as substrate incubated for 1 hr in presence of [3H]-SAM by filter binding method relative to control
[6] = organism: Homo sapiens; assay: Selectivity ratio of IC50 for human HDAC3 to IC50 for human HDAC6
[7] = target: Histone deacetylase 9 (Homo sapiens) (UniProt Q9UKV0); assay: Inhibition of human HDAC9 at 10 uM using Acetyl-Lys (trifluoroacetyl)-AMC) as substrate incubated for 2 hrs by fluorescence assay relative to control
[8] = target: Histone deacetylase 8 (Homo sapiens, UniProt Q9BY41); assay: Inhibition of human HDAC8 using Arg-His-Lys (Ac)-Lys (Ac) as substrate incubated for 2 hrs by fluorescence assay
[9] = target: Histone deacetylase 5 (Homo sapiens) (UniProt Q9UQL6); assay: Inhibition of human HDAC5 at 10 uM using Acetyl-Lys (trifluoroacetyl)-AMC) as substrate incubated for 2 hrs by fluorescence assay relative to control
[10] = target: Histone deacetylase 2 (Homo sapiens, UniProt Q92769); assay: Inhibition of human HDAC2 using Arg-His-Lys-Lys (Ac) as substrate incubated for 2 hrs by fluorescence assay
[11] = test system: MCF7; assay: Antiproliferative activity against human MCF7 cells incubated for 72 hrs by MTT assay; format: functional, cell-based; details: MCF7, 72 h
[12] = test system: KMS-12-BM; assay: Antiproliferative activity against human KMS-12-BM cells incubated for 48 hrs by CellTiter-Glo luminescent cell viability assay; format: functional, cell-based
[13] = test system: MOLM-14; assay: Antiproliferative activity against human MOLM14 cells incubated for 48 hrs by CellTiter-Glo luminescent cell viability assay; format: functional, cell-based; details: MOLM-14, 48 h
[14] = test system: MDA-MB-231; assay: Induction of apoptosis in human MDA-MB-231 cells assessed as early apoptotic cells at 3 uM incubated for 48 hrs by Annexin V-FITC/PI staining by flow cytometric analysis (reference value: 5%); format: functional
[15] = test system: MDA-MB-231; assay: Induction of apoptosis in human MDA-MB-231 cells assessed as late apoptotic cells at 3 uM incubated for 48 hrs by Annexin V-FITC/PI staining by flow cytometric analysis (reference value: 3%); format: functional
[16] = test system: MDA-MB-231; assay: Induction of apoptosis in human MDA-MB-231 cells assessed as early apoptotic cells at 6 uM incubated for 48 hrs by Annexin V-FITC/PI staining by flow cytometric analysis (reference value: 5%); format: functional
[17] = test system: MDA-MB-231; assay: Induction of apoptosis in human MDA-MB-231 cells assessed as necrotic cells at 6 uM incubated for 48 hrs by Annexin V-FITC/PI staining by flow cytometric analysis (reference value: 15%); format: functional
[18] = test system: MDA-MB-231; assay: Induction of apoptosis in human MDA-MB-231 cells assessed as early apoptotic cells at 9 uM incubated for 48 hrs by Annexin V-FITC/PI staining by flow cytometric analysis (reference value: 5%); format: functional
[19] = test system: MDA-MB-231; assay: Induction of apoptosis in human MDA-MB-231 cells assessed as late apoptotic cells at 9 uM incubated for 48 hrs by Annexin V-FITC/PI staining by flow cytometric analysis (reference value: 3%); format: functional
[20] = target: Protein deacetylase HDAC6 (Homo sapiens) (UniProt Q9UBN7); assay: Inhibition of HDAC6 in human KMS-12-BM cells assessed as increase in Ac-Tubulin level at 2.5 to 10 uM incubated for 24 hrs by Western blot analysis; format: cell-based
[21] = test system: KMS-12-BM; assay: Effect on human KMS-12-BM cells assessed as increase in cleaved PARP level at 10 uM incubated for 24 hrs by Western blot analysis; format: functional, cell-based
[22] = Kinetic solubility in pH 7.4 universal buffer measured after 24 hrs by UV spectroscopic analysis; format: physicochemical; details: read-out: Kinetic_solubility
[23] = Effective permeability of the compound at pH 7.4 measured after 16 hrs by PAMPA assay; format: ADME; details: read-out: Peff
[24] = Therapeutic Index, ratio of EC50 for human AC10 cells to EC50 for human MDA-MB-231 cells; format: toxicity; details: AC10 cells versus MDA-MB-231 cells, read-out: Ratio EC50
[25] = Genotoxicity in Salmonella typhimurium TA98 in presence of S9 fraction incubated for 48 hrs by Ames test relative to control; format: toxicity, subcellular; details: salmonella enterica subsp. enterica serovar typhimurium, s9, 48 h
[26] = test system: TAMH; assay: Cytotoxicity against TAMH cells incubated for 24 hrs by CellTiter-Glo Cell Viability Assay; format: cell-based; details: Mus musculus
[27] = Half life in mouse liver microsomes at 3 uM preincubated for 5 mins followed by NADPH addition and measured up to 45 mins by LC-MS/MS analysis; format: ADME, Microsome
[28] = Intrinsic clearance in mouse liver microsomes at 3 uM preincubated for 5 mins followed by NADPH addition and measured up to 45 mins by LC-MS/MS analysis; format: ADME, Microsome; details: read-out: CLH
[29] = Half life in female rat liver microsomes at 3 uM preincubated for 5 mins followed by NADPH addition and measured up to 45 mins by LC-MS/MS analysis; format: ADME, Microsome
[30] = Intrinsic clearance in female rat liver microsomes at 3 uM preincubated for 5 mins followed by NADPH addition and measured up to 45 mins by LC-MS/MS analysis; format: ADME, Microsome
[31] = Selectivity index, ratio of EC50 for human MDA-MB-231 cells to IC50 for ring stage Plasmodium falciparum K1; format: functional; design: reference not given here
[32] = Inhibition of human MLL1 complex using core histone as substrate incubated for 1 hr in presence of [3H]-SAM by filter binding method
[33] = organism: Homo sapiens; assay: Selectivity ratio of IC50 for human HDAC4 to IC50 for human HDAC6
[34] = organism: Homo sapiens; assay: Selectivity ratio of IC50 for human HDAC5 to IC50 for human HDAC6
[35] = organism: Homo sapiens; assay: Selectivity ratio of IC50 for human HDAC9 to IC50 for human HDAC6
[36] = Genotoxicity in Salmonella typhimurium TA100 in presence of S9 fraction incubated for 48 hrs by Ames test relative to control; format: toxicity, subcellular; details: salmonella enterica subsp. enterica serovar typhimurium, s9, 48 h
[37] = target: Histone deacetylase 1 (Homo sapiens, UniProt Q13547)
Sequence of Histone deacetylase 1 (Q13547 whole entry): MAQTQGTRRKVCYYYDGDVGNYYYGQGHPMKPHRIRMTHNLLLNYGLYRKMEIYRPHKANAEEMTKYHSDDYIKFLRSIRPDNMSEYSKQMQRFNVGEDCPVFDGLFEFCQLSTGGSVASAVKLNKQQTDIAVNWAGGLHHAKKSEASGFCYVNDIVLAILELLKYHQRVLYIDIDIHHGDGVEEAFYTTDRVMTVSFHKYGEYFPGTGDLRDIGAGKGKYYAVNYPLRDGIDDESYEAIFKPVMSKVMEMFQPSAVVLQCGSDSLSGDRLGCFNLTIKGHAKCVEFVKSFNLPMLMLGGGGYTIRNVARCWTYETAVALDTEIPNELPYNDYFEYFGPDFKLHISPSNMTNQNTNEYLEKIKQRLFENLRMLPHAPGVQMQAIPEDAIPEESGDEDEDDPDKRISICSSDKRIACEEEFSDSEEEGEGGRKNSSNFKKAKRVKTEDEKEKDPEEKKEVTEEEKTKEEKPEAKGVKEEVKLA
Description: Inhibition of human HDAC1 using Arg-His-Lys-Lys (Ac) as substrate incubated for 2 hrs by fluorescence assay

Sequence of Histone deacetylase 9 (Homo sapiens) (Q9UKV0 whole entry): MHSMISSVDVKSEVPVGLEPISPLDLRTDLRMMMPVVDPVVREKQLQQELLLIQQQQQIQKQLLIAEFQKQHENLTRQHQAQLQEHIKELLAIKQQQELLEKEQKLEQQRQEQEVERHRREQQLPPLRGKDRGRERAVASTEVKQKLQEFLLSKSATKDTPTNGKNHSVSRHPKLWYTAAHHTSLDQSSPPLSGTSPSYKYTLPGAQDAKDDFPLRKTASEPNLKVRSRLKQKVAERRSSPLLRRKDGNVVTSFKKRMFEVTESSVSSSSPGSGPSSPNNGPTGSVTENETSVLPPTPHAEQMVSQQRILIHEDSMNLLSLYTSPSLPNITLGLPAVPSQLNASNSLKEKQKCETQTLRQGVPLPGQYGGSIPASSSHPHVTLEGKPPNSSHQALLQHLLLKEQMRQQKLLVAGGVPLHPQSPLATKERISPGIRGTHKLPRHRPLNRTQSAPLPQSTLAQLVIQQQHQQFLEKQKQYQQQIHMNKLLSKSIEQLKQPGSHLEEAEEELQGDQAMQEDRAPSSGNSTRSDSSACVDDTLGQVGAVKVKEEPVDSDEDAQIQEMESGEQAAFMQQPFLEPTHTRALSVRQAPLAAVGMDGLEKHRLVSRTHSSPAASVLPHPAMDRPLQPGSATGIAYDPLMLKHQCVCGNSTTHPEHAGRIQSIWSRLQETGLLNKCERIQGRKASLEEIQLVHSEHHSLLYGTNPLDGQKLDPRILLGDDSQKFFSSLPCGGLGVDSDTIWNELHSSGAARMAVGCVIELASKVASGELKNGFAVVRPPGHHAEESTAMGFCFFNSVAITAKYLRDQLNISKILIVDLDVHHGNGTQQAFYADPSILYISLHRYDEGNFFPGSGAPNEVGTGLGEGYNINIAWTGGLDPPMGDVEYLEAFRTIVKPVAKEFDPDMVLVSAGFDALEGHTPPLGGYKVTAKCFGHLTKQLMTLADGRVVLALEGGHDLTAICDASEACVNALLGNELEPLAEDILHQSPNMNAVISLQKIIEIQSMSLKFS
Sequence of Histone-lysine N-methyltransferase SUV39H2 (Homo sapiens) (Q9H5I1 whole entry): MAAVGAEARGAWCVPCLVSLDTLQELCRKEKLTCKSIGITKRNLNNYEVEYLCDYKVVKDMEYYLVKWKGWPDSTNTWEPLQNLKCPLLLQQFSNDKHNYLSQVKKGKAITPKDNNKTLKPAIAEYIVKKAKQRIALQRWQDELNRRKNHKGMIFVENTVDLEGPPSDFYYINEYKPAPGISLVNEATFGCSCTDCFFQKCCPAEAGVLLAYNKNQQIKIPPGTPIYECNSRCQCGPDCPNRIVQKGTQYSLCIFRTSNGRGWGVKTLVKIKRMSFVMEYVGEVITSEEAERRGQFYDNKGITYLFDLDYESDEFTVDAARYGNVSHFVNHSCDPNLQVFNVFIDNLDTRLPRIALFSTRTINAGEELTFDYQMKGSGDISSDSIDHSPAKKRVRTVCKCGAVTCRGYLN
Sequence of Protein arginine N-methyltransferase 1 (Homo sapiens) (Q99873 whole entry, looked up): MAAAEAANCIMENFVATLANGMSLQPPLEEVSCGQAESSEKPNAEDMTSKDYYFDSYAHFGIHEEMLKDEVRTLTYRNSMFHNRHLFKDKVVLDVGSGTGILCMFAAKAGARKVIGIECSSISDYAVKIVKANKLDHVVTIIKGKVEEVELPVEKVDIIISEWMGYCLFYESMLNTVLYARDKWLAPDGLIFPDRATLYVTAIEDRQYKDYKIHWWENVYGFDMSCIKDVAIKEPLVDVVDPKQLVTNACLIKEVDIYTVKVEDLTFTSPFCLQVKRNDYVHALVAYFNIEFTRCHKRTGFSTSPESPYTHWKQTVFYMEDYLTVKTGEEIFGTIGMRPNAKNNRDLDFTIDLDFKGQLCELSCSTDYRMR
Sequence of Histone-lysine N-methyltransferase EHMT2 (Homo sapiens) (Q96KQ7 whole entry, the tested form may be a part): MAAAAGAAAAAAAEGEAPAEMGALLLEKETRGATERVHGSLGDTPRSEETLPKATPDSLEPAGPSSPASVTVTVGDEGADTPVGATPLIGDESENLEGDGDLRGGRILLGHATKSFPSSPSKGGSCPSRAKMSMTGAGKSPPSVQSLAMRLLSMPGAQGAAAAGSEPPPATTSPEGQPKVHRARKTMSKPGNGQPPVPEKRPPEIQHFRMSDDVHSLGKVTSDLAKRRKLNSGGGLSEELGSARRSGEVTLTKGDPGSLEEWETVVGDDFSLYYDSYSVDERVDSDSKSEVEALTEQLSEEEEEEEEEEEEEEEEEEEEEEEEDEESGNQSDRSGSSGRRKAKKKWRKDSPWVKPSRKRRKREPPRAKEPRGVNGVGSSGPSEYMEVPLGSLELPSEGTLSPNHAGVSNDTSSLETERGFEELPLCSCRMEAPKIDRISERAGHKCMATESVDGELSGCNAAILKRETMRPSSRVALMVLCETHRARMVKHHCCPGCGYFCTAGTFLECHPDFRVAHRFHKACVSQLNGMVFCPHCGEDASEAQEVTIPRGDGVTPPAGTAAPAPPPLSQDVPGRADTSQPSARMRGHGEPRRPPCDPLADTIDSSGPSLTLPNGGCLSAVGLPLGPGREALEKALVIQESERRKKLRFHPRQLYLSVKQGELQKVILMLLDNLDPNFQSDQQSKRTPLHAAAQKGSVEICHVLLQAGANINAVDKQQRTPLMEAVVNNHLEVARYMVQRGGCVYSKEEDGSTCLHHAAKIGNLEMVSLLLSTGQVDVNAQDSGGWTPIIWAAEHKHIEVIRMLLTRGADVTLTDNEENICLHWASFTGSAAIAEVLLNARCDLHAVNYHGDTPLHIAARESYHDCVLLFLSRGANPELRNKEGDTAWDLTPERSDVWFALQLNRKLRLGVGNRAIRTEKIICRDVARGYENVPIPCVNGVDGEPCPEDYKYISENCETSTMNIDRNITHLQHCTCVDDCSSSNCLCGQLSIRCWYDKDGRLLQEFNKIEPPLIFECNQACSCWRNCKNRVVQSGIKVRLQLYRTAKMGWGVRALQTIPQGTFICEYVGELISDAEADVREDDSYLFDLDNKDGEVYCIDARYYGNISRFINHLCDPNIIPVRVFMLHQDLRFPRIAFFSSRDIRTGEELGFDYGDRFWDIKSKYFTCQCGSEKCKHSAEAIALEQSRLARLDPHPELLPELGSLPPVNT
Sequence of Histone-lysine N-methyltransferase SUV39H1 (Homo sapiens) (O43463 whole entry): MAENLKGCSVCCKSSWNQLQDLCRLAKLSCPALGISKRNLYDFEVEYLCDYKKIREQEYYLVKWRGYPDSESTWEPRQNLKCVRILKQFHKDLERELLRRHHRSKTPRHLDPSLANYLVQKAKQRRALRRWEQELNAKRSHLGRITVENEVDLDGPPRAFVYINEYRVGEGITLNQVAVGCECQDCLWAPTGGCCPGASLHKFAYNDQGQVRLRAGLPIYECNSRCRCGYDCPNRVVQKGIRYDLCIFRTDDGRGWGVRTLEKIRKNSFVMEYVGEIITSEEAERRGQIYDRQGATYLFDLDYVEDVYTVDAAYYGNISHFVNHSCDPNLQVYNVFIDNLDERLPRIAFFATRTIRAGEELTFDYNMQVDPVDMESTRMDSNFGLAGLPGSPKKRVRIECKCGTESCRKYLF
Sequence of Histone deacetylase 8 (Q9BY41 whole entry): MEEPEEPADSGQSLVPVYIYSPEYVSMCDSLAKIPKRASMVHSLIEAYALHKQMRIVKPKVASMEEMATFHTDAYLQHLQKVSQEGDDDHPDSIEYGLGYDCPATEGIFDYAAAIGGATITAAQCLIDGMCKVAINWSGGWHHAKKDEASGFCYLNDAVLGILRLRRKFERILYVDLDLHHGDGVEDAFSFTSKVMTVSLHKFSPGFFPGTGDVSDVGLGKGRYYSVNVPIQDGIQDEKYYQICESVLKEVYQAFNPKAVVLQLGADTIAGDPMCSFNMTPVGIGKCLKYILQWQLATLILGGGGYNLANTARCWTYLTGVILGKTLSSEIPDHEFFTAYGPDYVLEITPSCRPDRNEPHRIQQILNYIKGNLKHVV
Sequence of Histone deacetylase 2 (Q92769 whole entry): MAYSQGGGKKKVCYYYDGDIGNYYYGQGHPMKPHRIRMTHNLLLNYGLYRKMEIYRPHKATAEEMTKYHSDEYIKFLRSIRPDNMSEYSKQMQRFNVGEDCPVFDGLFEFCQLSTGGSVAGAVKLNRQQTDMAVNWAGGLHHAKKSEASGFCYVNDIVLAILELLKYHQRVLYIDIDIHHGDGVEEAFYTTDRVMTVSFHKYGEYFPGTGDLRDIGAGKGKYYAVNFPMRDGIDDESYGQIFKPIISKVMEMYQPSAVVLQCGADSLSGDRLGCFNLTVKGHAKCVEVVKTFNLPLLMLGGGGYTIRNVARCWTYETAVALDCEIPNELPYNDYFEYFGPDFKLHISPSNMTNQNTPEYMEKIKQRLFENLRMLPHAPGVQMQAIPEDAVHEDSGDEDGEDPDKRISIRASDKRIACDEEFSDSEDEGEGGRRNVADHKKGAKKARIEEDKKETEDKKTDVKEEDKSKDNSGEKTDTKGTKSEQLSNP

inhibition [1]: inactive
inhibition [2]: 14%
inhibition [3]: inactive
inhibition [4]: 42%
inhibition [5]: 37%
Ratio IC50 [6]: 13
inhibition [7]: 21%
IC50 [8]: 1.26 µM
inhibition [9]: 25%
IC50 [10]: 1.13 µM
EC50 [11]: 7.3 µM
EC50 [13]: 2.8 µM
inhibition [20]: Active
solubility kinetic at 24 h [22]: 4 µM (≈ 2.74 µg/mL)
Papp at 16 h [23]: 7.9 ×10⁻⁶ cm/s
half-life at 3 µM [27]: 0.443 h
microsomal CLint at 3 µM [28]: 52.2 µL/min/mg
half-life at 3 µM [29]: 1.73 h
microsomal CLint at 3 µM [30]: 22.3 µL/min/mg
EC50 [32]: 158 µM
Ratio IC50 [33]: > 3000
Ratio IC50 [34]: > 3000
Ratio IC50 [35]: > 3000
IC50 [37]: 0.896 µM
Structure (SMILES): COc1ccc(CN2CCC(Nc3nc(Nc4ccc(NC(=O)CCCCCCC(=O)NO)cc4)nc4cc(OC)c(OC)cc34)CC2)cc1
EC50 [12]: 7.6 µM
Activity [14]: 23%
Activity [15]: 15%
Activity [16]: 18%
Activity [17]: 12%
Activity [18]: 24%
Activity [19]: 11%
Activity [21]: Active
selectivity ratio [24]: 15
Activity [25]: Non-Toxic
EC50 [26]: 29 µM
Selectivity Index [31]: 12
Activity [36]: Non-Toxic
